# Data reported in the supplement of paper PMC10307832.
# Experiments:
# Assay in all cases: relative viability (nuclei count vs DMSO), 5 days (fraction); higher = more cells survive
# Bleomycin + Tozasertib = compound: CC1=C(N=C(N=C1N)[C@H](CC(=O)N)NC[C@@H](C(=O)N)N)C(=O)N[C@@H]([C@H](C2=CN=CN2)OC3C(C(C(C(O3)CO)O)O)OC4C(C(C(C(O4)CO)O)OC(=O)N)O)C(=O)N[C@H](C)[C@H]([C@H](C)C(=O)N[C@@H]([C@@H](C)O)C(=O)NCCC5=NC(=CS5)C6=NC(=CS6)C(=O)NCCC[S+](C)C)O [Bleomycin] + Cc1cc(Nc2cc(N3CCN(C)CC3)nc(Sc3ccc(NC(=O)C4CC4)cc3)n2)n[nH]1 [Tozasertib] (partner 0.1 µM); settings: main component drawn
# Outline: (§1)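 Cells from lung cancer lines were seeded into 1536-well plates and, one day later, dosed by pin tool. Treatments were either a single drug or a fixed dose of an anchor drug with five library-drug doses (not always all listed) in √10 steps. After 5 days, nuclei were stained in a one-step fixation (final 0.05% Triton X-100, 1% formaldehyde, 1 ug/ml Hoechst) and counted on 4× images, and relative viability is the treated-to-vehicle nuclei ratio, as the median of duplicate plates.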
# Etoposide + Bortezomib = compound: COc1cc([C@@H]2c3cc4c(cc3[C@@H](O[C@@H]3O[C@@H]5CO[C@@H](C)O[C@H]5[C@H](O)[C@H]3O)[C@H]3COC(=O)[C@H]23)OCO4)cc(OC)c1O [Etoposide] + CC(C)C[C@H](NC(=O)[C@H](Cc1ccccc1)NC(=O)c1cnccn1)B(O)O [Bortezomib] (partner 0.002 µM)
# Outline: as §1
# Etoposide + Foretinib = compound: COc1cc([C@@H]2c3cc4c(cc3[C@@H](O[C@@H]3O[C@@H]5CO[C@@H](C)O[C@H]5[C@H](O)[C@H]3O)[C@H]3COC(=O)[C@H]23)OCO4)cc(OC)c1O [Etoposide] + COc1cc2c(Oc3ccc(NC(=O)C4(C(=O)Nc5ccc(F)cc5)CC4)cc3F)ccnc2cc1OCCCN1CCOCC1 [Foretinib] (partner 0.25 µM)
# Outline: as §1
# Etoposide + Linsitinib = compound: COc1cc([C@@H]2c3cc4c(cc3[C@@H](O[C@@H]3O[C@@H]5CO[C@@H](C)O[C@H]5[C@H](O)[C@H]3O)[C@H]3COC(=O)[C@H]23)OCO4)cc(OC)c1O [Etoposide] + C[C@]1(O)C[C@@H](c2nc(-c3ccc4ccc(-c5ccccc5)nc4c3)c3c(N)nccn32)C1 [Linsitinib] (partner 1 µM)
# Outline: as §1
Cell Line,relative viability (Bleomycin + Tozasertib; first compound 0.01 µM),relative viability (Bleomycin + Tozasertib; first compound 0.03162 µM),relative viability (Bleomycin + Tozasertib; first compound 0.1 µM),relative viability (Bleomycin + Tozasertib; first compound 0.3162 µM),relative viability (Bleomycin + Tozasertib; first compound 1 µM),relative viability (Etoposide + Bortezomib; first compound 0.01 µM),relative viability (Etoposide + Bortezomib; first compound 0.03162 µM),relative viability (Etoposide + Bortezomib; first compound 0.1 µM),relative viability (Etoposide + Bortezomib; first compound 0.3162 µM),relative viability (Etoposide + Bortezomib; first compound 1 µM),relative viability (Etoposide + Foretinib; first compound 0.01 µM),relative viability (Etoposide + Foretinib; first compound 0.03162 µM),relative viability (Etoposide + Foretinib; first compound 0.1 µM),relative viability (Etoposide + Foretinib; first compound 0.3162 µM),relative viability (Etoposide + Foretinib; first compound 1 µM),relative viability (Etoposide + Linsitinib; first compound 0.01 µM),relative viability (Etoposide + Linsitinib; first compound 0.03162 µM),relative viability (Etoposide + Linsitinib; first compound 0.1 µM),relative viability (Etoposide + Linsitinib; first compound 0.3162 µM),relative viability (Etoposide + Linsitinib; first compound 1 µM)
NCI-H3122,0.337,0.281,0.324,0.177,0.166,1.04,0.986,1.04,0.816,0.47,0.972,0.975,0.962,0.682,0.449,1.04,1.05,1.03,0.88,0.449
NCI-H727,0.761,0.578,0.732,–,0.596,0.764,1.07,0.536,0.857,0.659,0.988,0.912,–,0.732,0.606,0.239,0.286,0.3,0.337,0.349
NCI-H1915,0.317,0.347,0.229,0.162,0.133,0.963,0.969,0.992,0.906,0.516,1.06,1.18,1.16,0.986,0.877,1.1,1.16,1.06,0.994,0.851
CAL-12T,0.23,0.249,0.179,0.179,0.208,1.07,1.08,0.846,0.648,0.385,1.19,1.16,1.13,0.765,0.401,0.791,0.849,0.619,0.597,0.181
NCI-H2087,–,0.198,0.186,0.14,0.119,–,0.888,0.864,0.641,0.302,1.04,1.11,0.859,0.46,0.221,–,1.06,0.889,0.588,0.303
LXF-289,0.179,0.193,0.181,0.0822,0.0688,1.01,1.07,0.994,0.75,0.252,0.973,0.971,1.02,0.611,0.327,0.968,1.06,1,0.703,0.293
NCI-H520,0.412,0.422,0.486,0.33,0.358,0.484,0.634,0.379,0.576,0.561,0.825,0.93,0.784,0.67,0.554,0.927,1.04,1.1,0.895,0.9
NCI-H2009,0.717,0.789,0.701,0.424,0.351,0.975,1.1,0.933,0.628,0.241,1.17,1.24,1.17,0.835,0.694,1.09,1.24,1.25,0.839,0.401
